This note sets out measurements from patent publication US5108916A, “Process for stereoselectively hydrolyzing, transesterifying or esterifying with immobilized isozyme of lipase from Candida rugosa” (priority 1989, dated 1992).

The nature of one series: Solubility of HPPA-Me. The note with it: aqueous solution, pH 6.5. Format: physicochemical.
For a further series, the system named is Lipase MY. Nature of the series: Product inhibition of Lipase MY. The format is biochemical, Candida rugosa. To be noted: various amounts (30, 100 mM) at the beginning. The method, then: Two hydrolysis reactions were run to determine the effect of methanol, produced as a by-product of the hydrolysis of HPPA-Me, on the activity of Lipase MY. (R,S)-HPPA-Me, 1.5 moles, 1 L of 1 M NH4 OAc, pH 6.5, 150 ml toluene, and 2 g Lipase MY were placed in flasks with and without 0.75 moles of methanol. The mixtures were shaken gently and sampled at various times to determine the concentrations of each of the stereoisomers of HPPA which were produced.
To determine the effect of the (R)-HPPA produced during the hydrolysis of (R,S)-HPPA-Me on the activity of Lipase MY, a series of three experiments were performed. Ammonium acetate, 200 ml, 0.04 M, pH 7.0, was combined with 30 ml of toluene, 40 mmoles (R,S)-HPPA-Me, 25 mg Lipase MY, and 0, 30, or 100 mM (R)-HPPA. The reactions were shaken gently for 136 hours and sampled at various times to determine the concentrations of each of the stereoisomers of HPPA which were produced.

Regarding `CC(Oc1ccc(O)cc1)C(=O)O` (centres unmarked) [HPPA, 2-(4-hydroxyphenoxy)propionic acid], the solubility entry in the series “Solubility of HPPA-Me” is on record as “high solubility”. Besides, the “reduction in enzyme activity” value in the series with Lipase MY is 10-67%.
